In ChEMBL document CHEMBL1128884, “Selective inhibition of the tyrosine kinase pp60src by analogs of 5,10-dihydropyrimido[4,5-b]quinolin-4(1H)-one” (Bioorg Med Chem Lett, 1995):

Assays:
[1] = target: Proto-oncogene tyrosine-protein kinase Src (Homo sapiens, UniProt P12931); assay: Inhibition of cellular oncogene pp60 c-src
[2] = target: Epidermal growth factor receptor (Homo sapiens, UniProt P00533); assay: Inhibition of epidermal growth factor receptor (EGFR)
[3] = target: cAMP-dependent protein kinase (PKA) (Homo sapiens, UniProt P22694+P17612+P22612); assay: Inhibition of cAMP-dependent kinase (Protein kinase A); assay type: protein assay

Proto-oncogene tyrosine-protein kinase Src, sequence (P12931 2-536 limits assumed): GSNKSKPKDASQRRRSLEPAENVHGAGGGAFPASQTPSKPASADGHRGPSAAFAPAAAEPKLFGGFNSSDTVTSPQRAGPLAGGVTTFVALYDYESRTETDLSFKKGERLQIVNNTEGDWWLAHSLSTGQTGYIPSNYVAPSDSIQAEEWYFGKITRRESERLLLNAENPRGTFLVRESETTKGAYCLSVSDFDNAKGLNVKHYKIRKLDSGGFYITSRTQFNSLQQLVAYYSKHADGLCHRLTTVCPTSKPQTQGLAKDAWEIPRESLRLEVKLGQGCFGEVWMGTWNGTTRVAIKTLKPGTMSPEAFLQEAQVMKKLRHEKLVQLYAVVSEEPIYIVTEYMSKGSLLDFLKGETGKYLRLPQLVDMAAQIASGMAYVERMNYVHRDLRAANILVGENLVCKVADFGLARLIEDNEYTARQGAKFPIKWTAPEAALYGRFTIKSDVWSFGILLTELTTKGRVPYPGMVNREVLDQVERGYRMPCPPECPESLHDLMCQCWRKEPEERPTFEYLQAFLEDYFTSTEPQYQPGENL
Epidermal growth factor receptor, sequence (P00533 whole entry): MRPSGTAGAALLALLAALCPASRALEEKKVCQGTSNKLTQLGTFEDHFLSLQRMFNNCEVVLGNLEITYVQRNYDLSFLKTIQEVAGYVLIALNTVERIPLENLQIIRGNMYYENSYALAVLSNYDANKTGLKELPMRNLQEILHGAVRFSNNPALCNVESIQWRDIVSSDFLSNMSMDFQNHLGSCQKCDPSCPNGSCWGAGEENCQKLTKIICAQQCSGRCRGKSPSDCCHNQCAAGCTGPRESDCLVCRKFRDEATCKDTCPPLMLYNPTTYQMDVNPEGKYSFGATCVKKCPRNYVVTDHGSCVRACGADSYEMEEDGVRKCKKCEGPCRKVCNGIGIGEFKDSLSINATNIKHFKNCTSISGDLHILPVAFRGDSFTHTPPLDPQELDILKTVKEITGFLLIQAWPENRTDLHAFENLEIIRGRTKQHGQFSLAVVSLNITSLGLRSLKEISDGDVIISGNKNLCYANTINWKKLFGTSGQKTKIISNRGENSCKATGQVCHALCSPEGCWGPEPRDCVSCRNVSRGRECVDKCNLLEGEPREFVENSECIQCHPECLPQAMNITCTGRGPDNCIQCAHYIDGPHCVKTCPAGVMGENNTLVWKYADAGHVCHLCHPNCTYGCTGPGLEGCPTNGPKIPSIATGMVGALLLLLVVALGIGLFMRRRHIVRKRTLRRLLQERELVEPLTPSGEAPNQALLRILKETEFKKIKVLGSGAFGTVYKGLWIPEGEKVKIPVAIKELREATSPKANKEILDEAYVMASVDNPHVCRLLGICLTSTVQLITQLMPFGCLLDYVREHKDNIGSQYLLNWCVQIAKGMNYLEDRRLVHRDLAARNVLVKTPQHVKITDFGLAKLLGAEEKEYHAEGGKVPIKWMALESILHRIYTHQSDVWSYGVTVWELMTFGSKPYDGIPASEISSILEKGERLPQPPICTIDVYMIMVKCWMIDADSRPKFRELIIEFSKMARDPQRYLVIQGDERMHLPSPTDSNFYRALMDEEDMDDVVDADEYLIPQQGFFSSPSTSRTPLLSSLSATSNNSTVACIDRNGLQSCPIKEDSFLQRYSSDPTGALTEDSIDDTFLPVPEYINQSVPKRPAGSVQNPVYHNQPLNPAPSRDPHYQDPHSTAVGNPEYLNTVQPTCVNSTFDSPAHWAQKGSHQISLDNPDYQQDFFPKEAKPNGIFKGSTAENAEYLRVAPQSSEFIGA

| SMILES | IC50 [1] | IC50 [2] | IC50 [3] |
| --- | --- | --- | --- |
| COc1cc2c(cc1OC)Nc1ncnc(O)c1C2 | 0.5 µM | 75 µM | > 3000 µM |
| COc1cc2c(cc1OC)Nc1ncn(C)c(=O)c1C2 | 1.2 µM | 160 µM | > 3000 µM |
| COc1ccc2c(c1)Nc1ncnc(O)c1C2 | 0.5 µM |  | > 3000 µM |
| Oc1ncnc2c1Cc1ccccc1N2 | 9.1 µM |  | > 3000 µM |
| CCN1c2ccccc2Cc2c(O)ncnc21 | 550 µM |  | > 960 µM |
| COc1cc2cc3c(O)ncnc3nc2cc1OC | 32 µM |  | > 750 µM |
| COc1cc2c(cc1OC)Nc1ncn(CCN3CCOCC3)c(=O)c1C2 | 105 µM |  | > 1000 µM |
| Oc1[nH]cnc2nc3ccccc3c1-2 | 293 µM |  |  |
| Oc1cc(Nc2ccccc2)ncn1 | 1550 µM |  | > 4000 µM |
| CCc1nc(O)c2c(n1)Nc1ccccc1C2 | 38 µM |  | > 3000 µM |
| COc1ccc2c(c1)Cc1c(O)ncnc1N2 | 3.7 µM |  | > 3000 µM |
